Source: the supplement of paper PMC6965134
± gives the standard deviation of the averaged measurements.

Test: TIMS collisional cross section (CCS, N2) of the lipid ion; higher = larger ion cross section
Conditions: ionization mode: positive, one isomer drawn
Method: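 Lipid extracts of human plasma (NIST SRM 1950), mouse liver and HeLa cells were separated by nanoflow C18 LC (30 min gradient, 60 °C) and analysed by TIMS-PASEF on a timsTOF Pro in positive ion mode. Ion mobility was calibrated with the Agilent tuning mix and converted to collisional cross sections (Mason–Schamp) in N2 drift gas. Lipids were identified by MS/MS (SimLipid) and manual curation. SMILES are LIPID MAPS representative structures for the annotated lipid.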

SMILES | TIMS collisional cross section (sample type: Liver) | TIMS collisional cross section (sample type: plasma) | TIMS collisional cross section (sample type: HeLa)
CCCCC/C=C\C/C=C\CCCCCCCC(=O)OC[C@H](CO)OC(=O)CCCCCCCCC/C=C\CCCCCCCC [DG 18:2_20:1_0:0] (ion (formula + adduct): [C41H74O5+NH4] 1+) | 268.2 Å² |  | 
CCCCC/C=C\C/C=C\C/C=C\C/C=C\CCCC(=O)O[C@@H](CO)COC(=O)CCCCCCC/C=C\C/C=C\CCCCC [DG 18:2_20:4_0:0] (ion (formula + adduct): [C41H68O5+NH4] 1+) | 261.1 Å² | 261.6 Å² | 
CCCCC/C=C\C/C=C\CCCCCCCC(=O)OC[C@H](CO)OC(=O)CCCCCCCCCCCCCCCCCCCCC [DG 18:2_22:0_0:0] (ion (formula + adduct): [C43H80O5+NH4] 1+) | 279.2 Å² |  | 
CCCCC/C=C\C/C=C\CCCCCCCC(=O)OC[C@H](CO)OC(=O)CCCCCCCCCCC/C=C\CCCCCCCC [DG 18:2_22:1_0:0] (ion (formula + adduct): [C43H78O5+NH4] 1+) | 275.5 Å² |  | 
CCCCC/C=C\C/C=C\CCCCCCCCCCCC(=O)O[C@@H](CO)COC(=O)CCCCCCC/C=C\C/C=C\CCCCC [DG 18:2_22:2_0:0] (ion (formula + adduct): [C43H76O5+NH4] 1+) | 272.5 Å² |  | 
CCCCC/C=C\C/C=C\C/C=C\C/C=C\CCCCCC(=O)O[C@@H](CO)COC(=O)CCCCCCC/C=C\C/C=C\CCCCC [DG 18:2_22:4_0:0] (ion (formula + adduct): [C43H72O5+NH4] 1+) | 270.8 Å² |  | 
CC/C=C\C/C=C\C/C=C\C/C=C\C/C=C\CCCCCC(=O)O[C@@H](CO)COC(=O)CCCCCCC/C=C\C/C=C\CCCCC [DG 18:2_22:5_0:0] (ion (formula + adduct): [C43H70O5+NH4] 1+) | 266.9 Å² |  | 
CCCCC/C=C\C/C=C\C/C=C\C/C=C\CCCC(=O)O[C@@H](CO)COC(=O)CCCCCCCCCCCCCCCCCC [DG 19:0_20:4_0:0] (ion (formula + adduct): [C42H74O5+NH4] 1+) | 274.3 Å² |  | 
CCCCCC/C=C\CCCCCCCC(=O)O[C@@H](CO)COC(=O)CCCCCCC/C=C\CCCCCCCCC [DG 19:1_16:1_0:0] (ion (formula + adduct): [C38H70O5+NH4] 1+) |  |  | 261.1 Å²
CCCCCCCC/C=C\CCCCCCCC(=O)O[C@@H](CO)COC(=O)CCCCCCC/C=C\CCCCCCCCC [DG 19:1_18:1_0:0] (ion (formula + adduct): [C40H74O5+NH4] 1+) |  |  | 268.3 Å²
CCCCCCCCCCCCCCCCCCCCCC(=O)OC[C@H](CO)OC(=O)CCCCCCCCCCCCCCCCCCCCC [DG 22:0_22:0_0:0] (ion (formula + adduct): [C47H92O5+NH4] 1+) |  | 301.3 Å² | 
C[C@H](CO)CC[C@H](O)[C@@H](C)[C@H]1CC[C@H]2[C@@H]3CC=C4C[C@@H](O)CC[C@]4(C)[C@H]3CC[C@]12C [Dormatinol] (ion (formula + adduct): [C27H46O3+H] 1+) |  | 210.9 Å² | 
CCCCCCCCCCCCC/C=C/[C@@H](O)[C@H](CO[C@@H]1OC(CO)[C@@H](O[C@@H]2OC(CO)[C@H](O)[C@H](O)C2O)[C@H](O)C1O)NC(=O)CCCCCCCCCCCCC (some centres undefined) [GlcCer d18:1_14:0@] (ion (formula + adduct): [C44H83NO13+H] 1+) |  |  | 297.2 Å²
CCCCCCCCCCCCC/C=C/[C@@H](O)[C@H](CO[C@@H]1OC(CO)[C@@H](O[C@@H]2OC(CO)[C@H](O)[C@H](O)C2O)[C@H](O)C1O)NC(=O)CCCCCCCCCCCCCCC (some centres undefined) [GlcCer d18:1_16:0@] (ion (formula + adduct): [C46H87NO13+H] 1+) |  | 304.2 Å² | 
CCCCCCCCCCCCC/C=C/[C@@H](O)[C@H](CO[C@@H]1OC(CO)[C@@H](O[C@@H]2OC(CO)[C@H](O)[C@H](O)C2O)[C@H](O)C1O)NC(=O)CCCCCCCCCCCCCCC (some centres undefined) [GlcCer d18:1_16:0] (ion (formula + adduct): [C46H87NO13+H] 1+) |  |  | 304.1 Å²
CCCCCCCCCCCCC/C=C/[C@@H](O)[C@H](CO[C@@H]1O[C@H](CO)[C@@H](O)C(O)C1O)NC(=O)CCCCCCCCCCCCCCCCCCC (some centres undefined) [GlcCer d18:1_20:0@] (ion (formula + adduct): [C44H85NO8+H] 1+) | 292.9 Å² |  | 
CCCCCCCCCCCCC/C=C/[C@@H](O)[C@H](CO[C@@H]1O[C@H](CO)[C@@H](O)C(O)C1O)NC(=O)CCCCCCCCCCCCCCCCCCCCC (some centres undefined) [GlcCer d18:1_22:0@] (ion (formula + adduct): [C46H89NO8+H] 1+) | 298.7 Å² | 298.1 Å² | 298.3 Å²
CCCCCCCCCCCCC/C=C/[C@@H](O)[C@H](CO[C@@H]1O[C@H](CO)[C@@H](O)C(O)C1O)NC(=O)CCCCCCCCCCCCCCCCCCCCCC (some centres undefined) [GlcCer d18:1_23:0@] (ion (formula + adduct): [C47H91NO8+H] 1+) | 301.2 Å² |  | 301.5 Å²
CCCCCCCCCCCCCC(=O)OC[C@@H](O)COP(=O)([O-])OCC[N+](C)(C)C [LPC 14:0_0:0] (ion (formula + adduct): [C22H46NO7P+H] 1+) |  | 222.55 ± 0.78 Å² | 222.8 Å²
CCCCCCCCCCCCCCCC(=O)O[C@H](CO)COP(=O)([O-])OCC[N+](C)(C)C [LPC 16:0] (ion (formula + adduct): [C24H50NO7P+H] 1+) | 229.9 Å² | 231 Å² | 
CCCCCCCCCCCCCCCCCCCC(=O)OC[C@@H](O)COP(=O)([O-])OCC[N+](C)(C)C [LPC 20:0_0:0] (ion (formula + adduct): [C28H58NO7P+H] 1+) |  | 245 Å² | 

Now from value to compound:

TIMS collisional cross section (sample type: Liver) | TIMS collisional cross section (sample type: plasma) | TIMS collisional cross section (sample type: HeLa) | SMILES
304.1 Å² |  | 304.2 Å² | CCCCCCCCCCCCC/C=C/[C@@H](O)[C@H](CO[C@@H]1O[C@H](CO)[C@@H](O)C(O)C1O)NC(=O)CCCCCCCCCCCCCCCCCCCCCCC (some centres undefined) [GlcCer d18:1_24:0@] (ion (formula + adduct): [C48H93NO8+H] 1+)
302.8 Å² |  |  | CCCCCCCC/C=C\CCCCCCCCCCCCCC(=O)N[C@@H](CO[C@@H]1O[C@H](CO)[C@@H](O)C(O)C1O)[C@H](O)/C=C/CCCCCCCCCCCCC (some centres undefined) [GlcCer d18:1_24:1@] (ion (formula + adduct): [C48H91NO8+H] 1+)
 | 205 Å² |  | CCCCC/C=C\C/C=C\C/C=C\C/C=C\CCCC(=O)OC[C@@H](O)COP(=O)(O)O [LPA 20:4_0:0] (ion (formula + adduct): [C23H39O7P+H] 1+)
230.6 Å² | 229.87 ± 0.98 Å² | 230.8 Å² | CCCCCCCCCCCCCCCC(=O)OC[C@@H](O)COP(=O)([O-])OCC[N+](C)(C)C [LPC 16:0_0:0] (ion (formula + adduct): [C24H50NO7P+H] 1+)
224.5 Å² | 225.13 ± 1.1 Å² | 226 Å² | CCCCCC/C=C/CCCCCCCC(=O)OC[C@@H](O)COP(=O)([O-])OCC[N+](C)(C)C [LPC 16:1] (ion (formula + adduct): [C24H48NO7P+H] 1+)
 | 225.77 ± 1.4 Å² |  | CCCCCC/C=C/CCCCCCCC(=O)OC[C@@H](O)COP(=O)([O-])OCC[N+](C)(C)C [LPC 16:1_0:0] (ion (formula + adduct): [C24H48NO7P+H] 1+)
 | 238.4 Å² | 237.1 Å² | CCCCCCCCCCCCCCCCCC(=O)O[C@H](CO)COP(=O)([O-])OCC[N+](C)(C)C [LPC 18:0] (ion (formula + adduct): [C26H54NO7P+H] 1+)
 | 231.9 Å² |  | CCCCCCCCCCC/C=C\CCCCC(=O)O[C@H](CO)COP(=O)([O-])OCC[N+](C)(C)C [LPC 18:1] (ion (formula + adduct): [C26H52NO7P+H] 1+)
232.95 ± 1.1 Å² | 232.8 ± 0.42 Å² | 233.6 Å² | CCCCCCCCCCC/C=C\CCCCC(=O)OC[C@@H](O)COP(=O)([O-])OCC[N+](C)(C)C [LPC 18:1_0:0] (ion (formula + adduct): [C26H52NO7P+H] 1+)
227.6 ± 1.3 Å² | 226.96 ± 1.1 Å² | 227.3 ± 1.3 Å² | CCCCCCCCCCCCC/C=C/C=C/C(=O)OC[C@@H](O)COP(=O)([O-])OCC[N+](C)(C)C [LPC 18:2_0:0] (ion (formula + adduct): [C26H50NO7P+H] 1+)
 | 224.9 Å² |  | CC/C=C\C/C=C\C/C=C\CCCCCCCC(=O)OC[C@@H](O)COP(=O)([O-])OCC[N+](C)(C)C [LPC 18:3] (ion (formula + adduct): [C26H48NO7P+H] 1+)
 | 220.8 Å² |  | CC/C=C/C=C/C=C/C=C/CCCCCCCC(=O)OC[C@@H](O)COP(=O)([O-])OCC[N+](C)(C)C [LPC 18:4] (ion (formula + adduct): [C26H46NO7P+H] 1+)
239 Å² | 239.3 Å² |  | CCCCCCCCCC/C=C\CCCCCCCC(=O)OC[C@@H](O)COP(=O)([O-])OCC[N+](C)(C)C [LPC 20:1_0:0] (ion (formula + adduct): [C28H56NO7P+H] 1+)
236.2 Å² | 232.57 ± 2.1 Å² | 234.05 ± 2.8 Å² | CCCCC/C=C\C/C=C\C/C=C\CCCCCCC(=O)OC[C@@H](O)COP(=O)([O-])OCC[N+](C)(C)C [LPC 20:3] (ion (formula + adduct): [C28H52NO7P+H] 1+)
